Assay results taken from ChEMBL document CHEMBL1148465, “Carbonic anhydrase inhibitors: the first selective, membrane-impermeant inhibitors targeting the tumor-associated isozyme IX” (Bioorg Med Chem Lett, 2004).
pKi: −log10 of the molar value.

Experiments:
Carbonic anhydrase 9 = Carbonic anhydrase 9 (Homo sapiens, UniProt Q16790)
Description: Inhibitory activity against human carbonic anhydrase IX

Carbonic anhydrase 4 = target: T1, Carbonic anhydrase 4 (Bos taurus, UniProt Q95323)
T1 sequence (Q95323 whole entry): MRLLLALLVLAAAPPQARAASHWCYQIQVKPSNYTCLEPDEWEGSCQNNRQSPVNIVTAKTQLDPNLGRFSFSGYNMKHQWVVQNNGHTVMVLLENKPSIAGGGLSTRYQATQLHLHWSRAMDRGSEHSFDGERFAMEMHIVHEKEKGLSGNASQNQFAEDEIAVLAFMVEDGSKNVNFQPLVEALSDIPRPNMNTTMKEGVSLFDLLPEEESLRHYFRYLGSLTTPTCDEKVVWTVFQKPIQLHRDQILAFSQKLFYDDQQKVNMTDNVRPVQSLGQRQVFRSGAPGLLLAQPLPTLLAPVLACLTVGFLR
Description: Inhibitory activity against carbonic anhydrase IV from bovine lung microsomes

Carbonic anhydrase 1 = Carbonic anhydrase 1 (Homo sapiens, UniProt P00915)
Description: Inhibitory activity against human carbonic anhydrase I

Carbonic anhydrase 2 = Carbonic anhydrase 2 (Homo sapiens, UniProt P00918)
Description: Inhibitory activity against human carbonic anhydrase II

Carbonic anhydrase 1, sequence (P00915 whole entry): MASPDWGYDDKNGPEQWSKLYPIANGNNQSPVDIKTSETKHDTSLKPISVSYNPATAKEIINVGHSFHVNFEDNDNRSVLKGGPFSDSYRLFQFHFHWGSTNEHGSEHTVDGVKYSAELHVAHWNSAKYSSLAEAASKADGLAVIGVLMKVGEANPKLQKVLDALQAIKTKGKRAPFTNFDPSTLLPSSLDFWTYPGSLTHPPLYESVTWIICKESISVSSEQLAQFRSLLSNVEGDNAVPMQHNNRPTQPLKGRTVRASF

Row | Compound | pKi (Carbonic anhydrase 9) | pKi (Carbonic anhydrase 4) | pKi (Carbonic anhydrase 1) | pKi (Carbonic anhydrase 2)
1 | CC(C)(C)c1cc(-c2ccccc2)cc(-c2ccccc2)[n+]1Cc1ccc(S(N)(=O)=O)cc1 | < 6.30 |  |  | 
2 | NS(=O)(=O)c1ccc(C[n+]2c(-c3ccccc3)cccc2-c2ccccc2)cc1 |  | 5.71 | 3.55 | 
3 | Cc1cc(-c2ccccc2)cc(C)[n+]1Cc1ccc(S(N)(=O)=O)cc1 |  | 7.15 | 5.40 | 
4 | CCCc1cc(-c2ccccc2)cc(-c2ccccc2)[n+]1CCc1ccc(S(N)(=O)=O)cc1 |  |  | 3.95 | 
5 | CCCCc1cc(-c2ccccc2)cc(-c2ccccc2)[n+]1Cc1ccc(S(N)(=O)=O)cc1 | 6.87 | 5.68 | 3.52 | 6.23
6 | CC(C)c1cc(-c2ccccc2)cc(-c2ccccc2)[n+]1-c1ccc(S(N)(=O)=O)cc1 | < 6.30 | 5.68 |  | 
7 | CC(C)(C)c1cc(-c2ccccc2)cc(-c2ccccc2)[n+]1CCc1ccc(S(N)(=O)=O)cc1 | < 6.30 |  |  | 
8 | NS(=O)(=O)c1ccc(-[n+]2c(-c3ccccc3)cc(-c3ccccc3)cc2-c2ccccc2)cc1 | < 6.30 |  | 3.54 | 
9 | CCCc1cc(-c2ccccc2)cc(-c2ccccc2)[n+]1-c1ccc(S(N)(=O)=O)cc1 | < 6.30 |  |  | 
10 | Cc1cc(C(C)C)[n+](Cc2ccc(S(N)(=O)=O)cc2)c(C(C)C)c1 |  | 6.84 |  | 
11 | NS(=O)(=O)c1ccc(C[n+]2c(-c3ccccc3)cc(-c3ccccc3)cc2-c2ccccc2)cc1 | 6.92 | 5.71 | 3.55 | 
12 | CCCCc1cc(-c2ccccc2)cc(-c2ccccc2)[n+]1CCc1ccc(S(N)(=O)=O)cc1 | 6.92 |  | 3.54 | 
13 | CC(C)c1cc(-c2ccccc2)cc(C(C)C)[n+]1-c1ccc(S(N)(=O)=O)cc1 |  |  | 5.30 | 
14 | CCCCc1cc(-c2ccccc2)cc(-c2ccccc2)[n+]1-c1ccc(S(N)(=O)=O)cc1 | < 6.30 |  |  | 

More lines, now with the values ahead:

Row | pKi (Carbonic anhydrase 9) | pKi (Carbonic anhydrase 4) | pKi (Carbonic anhydrase 1) | pKi (Carbonic anhydrase 2) | Compound
15 |  |  | 5.15 |  | CCCc1cc(-c2ccccc2)cc(CCC)[n+]1CCc1ccc(S(N)(=O)=O)cc1
16 |  |  | 3.95 |  | CC(C)c1cc(-c2ccccc2)cc(-c2ccccc2)[n+]1Cc1ccc(S(N)(=O)=O)cc1
17 |  |  | 5.70 | 7.68 | CCc1cc(-c2ccccc2)cc(CC)[n+]1Cc1ccc(S(N)(=O)=O)cc1
18 |  | 7.15 | 5.52 | 7.70 | Cc1cc(C(C)C)[n+](CCc2ccc(S(N)(=O)=O)cc2)c(C(C)C)c1
19 |  |  | 4.40 |  | CCc1cc(-c2ccccc2)cc(-c2ccccc2)[n+]1CCc1ccc(S(N)(=O)=O)cc1
20 |  |  | 5.70 |  | Cc1cc(C)[n+](CCc2ccc(S(N)(=O)=O)cc2)c(C(C)C)c1
21 |  |  | 5.00 |  | Cc1cc(C)[n+](-c2ccc(S(N)(=O)=O)cc2)c(C)c1
22 |  |  | 4.40 |  | Cc1cc(-c2ccccc2)cc(-c2ccccc2)[n+]1-c1ccc(S(N)(=O)=O)cc1
23 | 8.10 | 7.68 | 5.70 |  | Cc1cc(C)[n+](CCc2ccc(S(N)(=O)=O)cc2)c(C)c1C
24 |  |  | 5.30 |  | Cc1cc(C)[n+](-c2ccc(S(N)(=O)=O)cc2)c(C)c1C
25 |  |  | 5.15 | 7.30 | Cc1cc(C)[n+](Cc2ccc(S(N)(=O)=O)cc2)c(C)c1
26 |  |  | 5.52 |  | Cc1cc(C)[n+](Cc2ccc(S(N)(=O)=O)cc2)c(C)c1C
27 |  |  | 5.15 | 7.22 | Cc1cc(-c2ccccc2)cc(C)[n+]1-c1ccc(S(N)(=O)=O)cc1
28 | 8.10 | 7.68 | 6.00 |  | CCc1cc(-c2ccccc2)cc(CC)[n+]1CCc1ccc(S(N)(=O)=O)cc1
29 |  |  | 5.00 |  | CCCc1cc(-c2ccccc2)cc(CCC)[n+]1-c1ccc(S(N)(=O)=O)cc1
30 | 7.10 | 6.01 | 4.38 | 6.50 | CCc1cc(-c2ccccc2)cc(-c2ccccc2)[n+]1Cc1ccc(S(N)(=O)=O)cc1
31 |  |  | 6.00 |  | Cc1cc(-c2ccccc2)cc(C)[n+]1CCc1ccc(S(N)(=O)=O)cc1
32 |  |  | 5.22 | 7.30 | Cc1cc(C)[n+](Cc2ccc(S(N)(=O)=O)cc2)c(C(C)C)c1
33 |  |  | 5.22 | 7.68 | CC(C)c1cc(-c2ccccc2)cc(C(C)C)[n+]1CCc1ccc(S(N)(=O)=O)cc1
34 |  |  | 5.22 | 7.22 | CCc1cc(-c2ccccc2)cc(CC)[n+]1-c1ccc(S(N)(=O)=O)cc1
